Values joined by “and” are separate entries in the source; they are usually repeats but may differ in a detail not shown here. Equal entries are not always repeated. Toxic doses and inconclusive results are not listed. Rule for the calls: active = survival T/C of 150% or more; inactive = T/C below 125% in these data.
Test system: P388 leukemia ip, CD2F1 mice, survival T/C
Assay: NCI In Vivo Anticancer Drug Screen. Data for tumor model P388 Leukemia (intraperitoneal) in CD2F1 (CDF1) mice
Settings: endpoint: median survival time, higher = longer survival
Outline: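 Mice carrying the transplanted tumor received test compound or vehicle. Survival was recorded in each group, and the value is the treated-group measurement divided by that of the vehicle-treated control group.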

[1] = dose: 60.0 mg/kg/injection, schedule: Q01DX005 (ip), vehicle: saline
[2] = dose: 120.0 mg/kg/injection, schedule: Q01DX005 (ip), vehicle: saline
[3] = dose: 240.0 mg/kg/injection, schedule: Q01DX005 (ip), vehicle: saline
[4] = dose: 25.0 mg/kg/injection, schedule: Q01DX009 (ip), vehicle: other
[5] = dose: 50.0 mg/kg/injection, schedule: Q01DX009 (ip), vehicle: other
[6] = dose: 100.0 mg/kg/injection, schedule: Q01DX009 (ip), vehicle: other
[7] = dose: 200.0 mg/kg/injection, schedule: Q01DX009 (ip), vehicle: other
[8] = dose: 60.0 mg/kg/injection, schedule: Q01DX005 (ip), vehicle: Klucel (hydroxypropylcellulose) (HPC)
[9] = dose: 120.0 mg/kg/injection, schedule: Q01DX005 (ip), vehicle: Klucel (hydroxypropylcellulose) (HPC)
[10] = dose: 50.0 mg/kg/injection, schedule: Q01DX009 (ip), vehicle: Klucel (hydroxypropylcellulose) (HPC)
[11] = dose: 100.0 mg/kg/injection, schedule: Q01DX009 (ip), vehicle: Klucel (hydroxypropylcellulose) (HPC)
[12] = dose: 12.5 mg/kg/injection, schedule: Q01DX005 (ip), vehicle: Klucel (hydroxypropylcellulose) (HPC)
[13] = dose: 25.0 mg/kg/injection, schedule: Q01DX005 (ip), vehicle: Klucel (hydroxypropylcellulose) (HPC)
[14] = dose: 50.0 mg/kg/injection, schedule: Q01DX005 (ip), vehicle: Klucel (hydroxypropylcellulose) (HPC)
[15] = dose: 100.0 mg/kg/injection, schedule: Q01DX005 (ip), vehicle: Klucel (hydroxypropylcellulose) (HPC)
[16] = dose: 200.0 mg/kg/injection, schedule: Q01DX005 (ip), vehicle: Klucel (hydroxypropylcellulose) (HPC)
[17] = dose: 50.0 mg/kg/injection, schedule: Q01DX009 (ip), vehicle: saline
[18] = dose: 100.0 mg/kg/injection, schedule: Q01DX009 (ip), vehicle: saline
[19] = dose: 200.0 mg/kg/injection, schedule: Q01DX009 (ip), vehicle: saline
[20] = dose: 60.0 mg/kg/injection, schedule: Q01DX005 (ip), vehicle: saline with Tween-80
[21] = dose: 240.0 mg/kg/injection, schedule: Q01DX005 (ip), vehicle: Klucel (hydroxypropylcellulose) (HPC)

Measured: T/C

C=CC(/C=C\c1ccc(OC2OC(CO)C(O)C(O)C2O)cc1)c1ccc(OC2OC(CO)C(O)C(O)C2O)cc1 (stereo not given)
inactive: [1] 97 % of control | [2] 103 % of control | [3] 92 % of control

CC(O)[C@H]1CC[C@H]2[C@@H]3CC(=O)[C@H]4C[C@H](O)[C@H](O)C[C@]4(C)[C@H]3CC[C@]12C (stereo not given in full)
inactive: dose: 100.0 mg/kg/injection, schedule: Q04DX002 (ip), vehicle: saline with Tween-80 91 % of control | dose: 200.0 mg/kg/injection, schedule: Q04DX002 (ip), vehicle: saline with Tween-80 90 % of control | dose: 400.0 mg/kg/injection, schedule: Q04DX002 (ip), vehicle: saline with Tween-80 90 % of control

COc1ccc(-c2c(N)cnc(C(=O)O)c2C)c(OCc2ccccc2)c1OC
inactive: dose: 12.5 mg/kg/injection, schedule: Q01DX009 (ip), vehicle: other 108 % of control | [4] 105 % of control | [5] 102 % of control | [6] 97 % of control | [7] 99 % of control

O=[N+]([O-])c1cc2c(cc1C1OCCO1)OCO2
inactive: [4] 102 % of control | [5] 100 % of control | [6] 100 % of control | [7] 98 % of control | dose: 400.0 mg/kg/injection, schedule: Q01DX009 (ip), vehicle: other 98 % of control

COc1cccc2c1C(=O)c1c(O)c3c(c(O)c1C2=O)CC(O)(C(C)=O)CC3OC1CC(N/C(C)=C/C(C)=O)C(O)C(C)O1 (stereo not given)
inactive: dose: 3.13 mg/kg/injection, schedule: Q04DX003 (ip), vehicle: distilled water + Tween-80 94 % of control | dose: 6.25 mg/kg/injection, schedule: Q04DX003 (ip), vehicle: distilled water + Tween-80 103 % of control | dose: 12.5 mg/kg/injection, schedule: Q04DX003 (ip), vehicle: distilled water + Tween-80 103 % of control | dose: 25.0 mg/kg/injection, schedule: Q04DX003 (ip), vehicle: distilled water + Tween-80 115 % of control and 119 % of control | dose: 200.0 mg/kg/injection, schedule: Q04DX003 (ip), vehicle: distilled water + Tween-80 102 % of control

C=C1C(=O)C23OC2C1CCC(=O)C1(C)CC[C@H](OC(C)=O)C(C)(C)[C@H]1CC3O (stereo not given in full)
inactive: dose: 5.0 mg/kg/injection, schedule: Q01DX005 (ip), vehicle: Klucel (hydroxypropylcellulose) (HPC) 104 % of control | dose: 10.0 mg/kg/injection, schedule: Q01DX005 (ip), vehicle: Klucel (hydroxypropylcellulose) (HPC) 109 % of control | dose: 20.0 mg/kg/injection, schedule: Q01DX005 (ip), vehicle: Klucel (hydroxypropylcellulose) (HPC) 111 % of control | dose: 40.0 mg/kg/injection, schedule: Q01DX005 (ip), vehicle: Klucel (hydroxypropylcellulose) (HPC) 110 % of control and 114 % of control

C1CN1Sc1nc(SN2CC2)nc(SN2CC2)n1
inactive: [8] 100 % of control | [9] 97 % of control

O=C1CCC/C1=C1/SS/C(=C2/CCCC2=O)S1
inactive: [10] 101 % of control | [11] 102 % of control | dose: 200.0 mg/kg/injection, schedule: Q01DX009 (ip), vehicle: Klucel (hydroxypropylcellulose) (HPC) 98 % of control

CCOc1ccc2ccccc2c1C(Cc1ccccc1)NC (stereo not given)
inactive: [12] 99 % of control | [13] 93 % of control | [14] 99 % of control and 100 % of control

O=C1c2ccccc2C(=O)C1(Br)C(Cl)c1ccccc1 (stereo not given)
inactive: [10] 90 % of control | [11] 95 % of control | dose: 100.0 mg/kg/injection, schedule: Q04DX003 (ip), vehicle: Klucel (hydroxypropylcellulose) (HPC) 104 % of control | dose: 200.0 mg/kg/injection, schedule: Q04DX003 (ip), vehicle: Klucel (hydroxypropylcellulose) (HPC) 100 % of control

Cc1cc(Cl)c2cc3c(cc2n1)OCO3
inactive: [14] 106 % of control | [15] 104 % of control | [16] 98 % of control

CC1=C2CCC3(C)C(=C2OC1=O)C(C)=C(Cl)C(Br)C3Br (stereo not given)
inactive: [14] 102 % of control | [15] 111 % of control | [16] 118 % of control

COC(OC)C(C)N1CCCCC1 (stereo not given)
inactive: dose: 12.5 mg/kg/injection, schedule: Q01DX009 (ip), vehicle: saline 104 % of control | dose: 25.0 mg/kg/injection, schedule: Q01DX009 (ip), vehicle: saline 97 % of control | [17] 99 % of control and 96 % of control

C[CH](C)[Ge]([CH3])([CH](C)C)[CH](C)C
inactive: [17] 100 % of control | [18] 93 % of control | [19] 110 % of control

O=C(Nc1cccc(C(F)(F)F)c1)C12CC3CC(CC(C3)C1)C2
inactive: dose: 6.25 mg/kg/injection, schedule: Q01DX009 (ip), vehicle: saline with Tween-80 98 % of control | dose: 12.5 mg/kg/injection, schedule: Q01DX009 (ip), vehicle: saline with Tween-80 100 % of control | dose: 25.0 mg/kg/injection, schedule: Q01DX009 (ip), vehicle: saline with Tween-80 91 % of control | dose: 50.0 mg/kg/injection, schedule: Q01DX009 (ip), vehicle: saline with Tween-80 90 % of control | dose: 100.0 mg/kg/injection, schedule: Q01DX009 (ip), vehicle: saline with Tween-80 88 % of control

c1ccc2c(SCCCCSc3c4ccccc4nc4ccccc34)c3ccccc3nc2c1
inactive: [1] 113 % of control | [2] 98 % of control | [3] 89 % of control

Nc1[nH]c(=O)ncc1-c1cccc(Cl)c1
inactive: dose: 15.0 mg/kg/injection, schedule: Q01DX005 (ip), vehicle: saline with Tween-80 103 % of control | dose: 30.0 mg/kg/injection, schedule: Q01DX005 (ip), vehicle: saline with Tween-80 104 % of control | [20] 106 % of control and 96 % of control

CCCC(=O)N(CCC(N)=O)c1ncc([N+](=O)[O-])s1
inactive: dose: 25.0 mg/kg/injection, schedule: Q01DX001 (ip), vehicle: saline 94 % of control | dose: 50.0 mg/kg/injection, schedule: Q01DX001 (ip), vehicle: saline 100 % of control | dose: 100.0 mg/kg/injection, schedule: Q01DX001 (ip), vehicle: saline 100 % of control

CCN(CC)CCCC(C)Nc1nncc2cc(Cl)ccc12 (stereo not given)
inactive: dose: 50.0 mg/kg/injection, schedule: Q01DX005 (ip), vehicle: saline 95 % of control | dose: 100.0 mg/kg/injection, schedule: Q01DX005 (ip), vehicle: saline 97 % of control

CCOC(=O)NCC(C)(c1ccccc1)c1ccccc1
inactive: [17] 87 % of control | [18] 94 % of control | [19] 87 % of control

CN1C(=S)C(=N)OC1c1ccccc1F (stereo not given)
inactive: [8] 106 % of control | [9] 105 % of control | [21] 103 % of control

COc1cc(C(c2cc3c(cc2OC(C)=O)OCO3)C(C)C(C)=O)cc(OC)c1OC (stereo not given)
inactive: [20] 102 % of control | dose: 120.0 mg/kg/injection, schedule: Q01DX005 (ip), vehicle: saline with Tween-80 108 % of control | dose: 240.0 mg/kg/injection, schedule: Q01DX005 (ip), vehicle: saline with Tween-80 111 % of control

COc1ccccc1N=Nc1c(-c2cccs2)nn(C(N)=S)c1C(F)(F)F
inactive: [8] 99 % of control | [9] 97 % of control | [21] 89 % of control

CC1NCCc2c1[nH]c1ccccc21 (stereo not given)
inactive: [12] 101 % of control | [13] 97 % of control | [14] 101 % of control and 97 % of control
